Reference: ChEMBL document CHEMBL5046278, “Synthesis and Evaluation of Novel Tetrahydronaphthyridine CXCR4 Antagonists with Improved Drug-like Profiles” (J Med Chem, 2022)

Columns and labels:
Homo sapiens [1] = organism: Homo sapiens; experiment: Selectivity index, ratio of IC50 for inhibition of recombinant human CYP2C9 to IC50 for antagonist activity at human CXCR4 receptor expressed in CCRF-CEM cells; type: cell-based
[2] = AUC(0 to 8 h) in mouse plasma at 3 mg/kg, iv measured at 24 hrs by LC-MS/MS analysis; type: ADME, organism-based; design: route intravenous, time 24 hrs, dose 3 mg/kg; settings: in vivo
Homo sapiens [3] = organism: Homo sapiens; experiment: Selectivity index, ratio of IC50 for inhibition of recombinant human CYP1A2 to IC50 for antagonist activity at human CXCR4 receptor expressed in CCRF-CEM cells; type: cell-based
[4] = Cmax in mouse at 3 mg/kg, po measured after 8 hrs by LC-MS/MS analysis; type: ADME, organism-based; design: route oral, time 8 hrs, dose 3 mg/kg; settings: in vivo
Homo sapiens [5] = organism: Homo sapiens; experiment: Selectivity index, ratio of IC50 for inhibition of dopamine D2 receptor (unknown origin) to IC50 for antagonist activity at human CXCR4 receptor expressed in CCRF-CEM cells; type: cell-based
[6] = Drug concentration in mouse plasma at 30 mg/kg, po measured at 12 hrs by LC-MS analysis; type: ADME, organism-based
[7] = Cmax in mouse at 3 mg/kg, iv measured after 8 hrs by LC-MS/MS analysis; type: ADME, organism-based; design: route intravenous, time 8 hrs, dose 3 mg/kg; settings: in vivo
[8] = Metabolic stability in mouse liver microsomes assessed compound remaining measured after 10 mins in presence of NADPH; type: ADME, Microsome; settings: read-out: Stability
[9] = tested on: Human immunodeficiency virus 1; experiment: Antiviral activity against HIV-1 Z1800M E4.02 (R5) pseudovirus infected in human TZM-blcells assessed as reduction in viral infectivity measured after 48 hrs of postinfection by luminescence assay; type: functional, organism-based; settings: Human immunodeficiency virus 1, Z1800M E4.02 (R5), TZM-bl
Homo sapiens [10] = organism: Homo sapiens; experiment: Selectivity index, ratio of IC50 for inhibition of recombinant human CYP3A4 to IC50 for antagonist activity at human CXCR4 receptor expressed in CCRF-CEM cells; type: cell-based
Cytochrome P450 2C8 = Cytochrome P450 2C8 (Homo sapiens, UniProt P10632); experiment: Inhibition of CYP2C8 (unknown origin); type: ADME
Homo sapiens [11] = organism: Homo sapiens; experiment: Selectivity index, ratio of IC50 for inhibition of alpha7 nicotinic acetylcholine receptor (unknown origin) to IC50 for antagonist activity at human CXCR4 receptor expressed in CCRF-CEM cells; type: cell-based
Mu-type opioid receptor = Mu-type opioid receptor (Homo sapiens, UniProt P35372); experiment: Inhibition of mu opioid receptor (unknown origin)
[12] = Antagonist activity at mAChR (unknown origin) expressed in CCRF-CEM cells assessed as inhibition of calcium release by calcium flux assay; type: cell-based; settings: Homo sapiens
[13] = molecular target: C-X-C chemokine receptor type 3 (Homo sapiens) (UniProt P49682); experiment: Inhibition of human CXCR3 at 10 uM relative to control
[14] = Oral bioavailability in mouse at 30 mg/kg measured at 24 hrs by LC-MS/MS analysis; type: ADME, organism-based; settings: in vivo
[15] = Therapeutic index, ratio of TC50 for human TZM-bl cells to IC50 for antiviral activity against HIV-1 NL4-3 (X4) pseudovirus infected in human TZM-bl cells assessed as reduction in viral infectivity; type: toxicity, cell-based
[16] = Drug concentration in mouse plasma at 10 mg/kg, po measured at 12 hrs by LC-MS/MS analysis; type: ADME, organism-based
[17] = Clearence in mouse at 3 mg/kg, iv measured at 24 hrs by LC-MS analysis; type: ADME, organism-based; settings: in vivo
Cytochrome P450 2C9 = Cytochrome P450 2C9 (Homo sapiens, UniProt P11712); experiment: Inhibition of CYP2C9 (unknown origin); type: ADME
[18] = Cmax in mouse at 30 mg/kg, po measured after 8 hrs by LC-MS/MS analysis; type: ADME, organism-based; design: route oral, dose 30 mg/kg, time 8 hrs; settings: in vivo
[19] = molecular target: Neuronal acetylcholine receptor subunit alpha-7 (Homo sapiens, UniProt P36544); experiment: Inhibition of alpha7 nicotinic acetylcholine receptor (unknown origin)
[20] = molecular target: T1, Muscarinic acetylcholine receptor M2 (Homo sapiens, UniProt P08172); experiment: Inhibition of M2 mAChR receptor (unknown origin)
T1 sequence (P08172 whole entry): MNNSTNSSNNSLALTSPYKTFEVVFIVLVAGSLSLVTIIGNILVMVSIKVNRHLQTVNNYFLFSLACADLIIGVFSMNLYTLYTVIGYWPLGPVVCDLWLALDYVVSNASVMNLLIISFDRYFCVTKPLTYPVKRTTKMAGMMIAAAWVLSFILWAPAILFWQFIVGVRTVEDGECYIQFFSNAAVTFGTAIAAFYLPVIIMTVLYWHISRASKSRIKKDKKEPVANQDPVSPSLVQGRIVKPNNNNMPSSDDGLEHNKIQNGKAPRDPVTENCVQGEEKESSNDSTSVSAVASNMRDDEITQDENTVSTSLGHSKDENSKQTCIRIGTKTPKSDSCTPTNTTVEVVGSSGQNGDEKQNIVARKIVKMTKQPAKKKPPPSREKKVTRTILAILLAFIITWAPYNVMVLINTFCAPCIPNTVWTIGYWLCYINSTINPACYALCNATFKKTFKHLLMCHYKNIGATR

Homo sapiens [21] = organism: Homo sapiens; experiment: Selectivity index, ratio of IC50 for inhibition of recombinant human CYP2C8 to IC50 for antagonist activity at human CXCR4 receptor expressed in CCRF-CEM cells; type: cell-based
Homo sapiens [22] = organism: Homo sapiens; experiment: Selectivity index, ratio of IC50 for Inhibition of human ERG to IC50 for antagonist activity at human CXCR4 receptor expressed in CCRF-CEM cells; type: cell-based
Homo sapiens [23] = organism: Homo sapiens; experiment: Selectivity index, ratio of IC50 for inhibition of alpha 2C adrenergic receptor (unknown origin) to IC50 for antagonist activity at human CXCR4 receptor expressed in CCRF-CEM cells; type: cell-based
D(2) dopamine receptor = D(2) dopamine receptor (Homo sapiens, UniProt P14416); experiment: Inhibition of dopamine D2 receptor (unknown origin)
Homo sapiens [24] = organism: Homo sapiens; experiment: Selectivity index, ratio of IC50 for inhibition of alpha 2A adrenergic receptor (unknown origin) to IC50 for antagonist activity at human CXCR4 receptor expressed in CCRF-CEM cells; type: cell-based
Homo sapiens [25] = organism: Homo sapiens; experiment: Selectivity index, ratio of IC50 for inhibition of recombinant human CYP2D6 to IC50 for antagonist activity at human CXCR4 receptor expressed in CCRF-CEM cells; type: cell-based
[26] = molecular target: C-X-C chemokine receptor type 1 (Homo sapiens) (UniProt P25024); experiment: Inhibition of human CXCR1 at 10 uM relative to control
[27] = AUC(0 to 8 h) in mouse plasma at 30 mg/kg, po measured at 24 hrs by LC-MS/MS analysis; type: ADME, organism-based; design: route oral, time 24 hrs, dose 30 mg/kg; settings: in vivo
Homo sapiens [28] = organism: Homo sapiens; experiment: Selectivity index, ratio of IC50 for inhibition of mu opioid receptor (unknown origin) to IC50 for antagonist activity at human CXCR4 receptor expressed in CCRF-CEM cells; type: cell-based
Homo sapiens [29] = organism: Homo sapiens; experiment: Selectivity index, ratio of IC50 for inhibition of kappa opioid receptor (unknown origin) to IC50 for antagonist activity at human CXCR4 receptor expressed in CCRF-CEM cells; type: cell-based
Cytochrome P450 3A4 = Cytochrome P450 3A4 (Homo sapiens, UniProt P08684); experiment: Inhibition of CYP3A4 (unknown origin); type: ADME
[30] = Permeability of compound at pH 5.5 incubated for 4 hrs by PAMPA assay; type: ADME; settings: read-out: permeability

Sequence of Cytochrome P450 2C9 (P11712 whole entry): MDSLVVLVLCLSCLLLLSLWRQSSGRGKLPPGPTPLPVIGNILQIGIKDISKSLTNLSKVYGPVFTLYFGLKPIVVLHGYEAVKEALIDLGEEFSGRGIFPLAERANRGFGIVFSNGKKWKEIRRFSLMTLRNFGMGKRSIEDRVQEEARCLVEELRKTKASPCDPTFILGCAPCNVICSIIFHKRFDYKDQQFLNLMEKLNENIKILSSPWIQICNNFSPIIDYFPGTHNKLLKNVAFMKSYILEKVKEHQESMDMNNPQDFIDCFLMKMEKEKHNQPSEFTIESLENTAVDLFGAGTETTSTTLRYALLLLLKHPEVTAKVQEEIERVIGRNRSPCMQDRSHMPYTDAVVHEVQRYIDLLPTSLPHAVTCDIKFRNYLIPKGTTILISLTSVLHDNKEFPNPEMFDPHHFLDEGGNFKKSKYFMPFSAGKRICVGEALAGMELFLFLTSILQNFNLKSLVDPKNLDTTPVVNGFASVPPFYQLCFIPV
Sequence of Neuronal acetylcholine receptor subunit alpha-7 (P36544 whole entry): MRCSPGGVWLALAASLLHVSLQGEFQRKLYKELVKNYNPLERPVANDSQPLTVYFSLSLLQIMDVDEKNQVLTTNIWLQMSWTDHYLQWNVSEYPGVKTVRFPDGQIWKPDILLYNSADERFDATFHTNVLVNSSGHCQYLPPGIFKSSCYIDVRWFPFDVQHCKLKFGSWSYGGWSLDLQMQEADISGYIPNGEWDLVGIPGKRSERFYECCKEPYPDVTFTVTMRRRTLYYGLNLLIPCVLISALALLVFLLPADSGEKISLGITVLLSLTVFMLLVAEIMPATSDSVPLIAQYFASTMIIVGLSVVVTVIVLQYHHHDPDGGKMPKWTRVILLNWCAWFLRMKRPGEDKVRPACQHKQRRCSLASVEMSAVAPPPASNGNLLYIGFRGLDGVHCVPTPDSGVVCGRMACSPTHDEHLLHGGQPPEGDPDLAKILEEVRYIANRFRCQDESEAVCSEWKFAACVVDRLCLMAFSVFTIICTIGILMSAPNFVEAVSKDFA
Sequence of Cytochrome P450 2C8 (P10632 whole entry): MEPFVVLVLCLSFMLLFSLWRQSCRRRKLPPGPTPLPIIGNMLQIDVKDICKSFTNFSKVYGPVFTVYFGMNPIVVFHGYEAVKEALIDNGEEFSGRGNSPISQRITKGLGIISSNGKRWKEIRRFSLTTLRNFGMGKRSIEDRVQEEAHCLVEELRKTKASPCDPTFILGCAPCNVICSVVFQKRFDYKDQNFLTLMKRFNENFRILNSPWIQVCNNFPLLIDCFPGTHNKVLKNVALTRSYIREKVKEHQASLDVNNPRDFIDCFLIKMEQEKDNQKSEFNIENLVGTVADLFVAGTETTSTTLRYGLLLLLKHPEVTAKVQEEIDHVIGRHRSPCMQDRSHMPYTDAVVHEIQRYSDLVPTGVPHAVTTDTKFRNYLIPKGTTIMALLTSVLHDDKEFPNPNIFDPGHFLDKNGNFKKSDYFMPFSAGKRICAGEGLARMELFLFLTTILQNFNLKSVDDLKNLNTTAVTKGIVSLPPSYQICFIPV
Sequence of D(2) dopamine receptor (P14416 whole entry): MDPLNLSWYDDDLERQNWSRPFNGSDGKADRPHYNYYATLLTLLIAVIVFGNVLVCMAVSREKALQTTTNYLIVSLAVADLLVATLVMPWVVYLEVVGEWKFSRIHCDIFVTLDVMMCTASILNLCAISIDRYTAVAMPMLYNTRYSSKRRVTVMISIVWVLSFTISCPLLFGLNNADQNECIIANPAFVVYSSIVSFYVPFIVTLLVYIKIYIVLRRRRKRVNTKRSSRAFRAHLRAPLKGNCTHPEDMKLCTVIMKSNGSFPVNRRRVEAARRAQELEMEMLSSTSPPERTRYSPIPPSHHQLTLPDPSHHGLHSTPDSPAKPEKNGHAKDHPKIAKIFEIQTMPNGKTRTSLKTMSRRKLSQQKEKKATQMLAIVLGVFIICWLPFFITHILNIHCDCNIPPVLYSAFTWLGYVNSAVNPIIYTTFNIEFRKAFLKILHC
Sequence of Cytochrome P450 3A4 (P08684 whole entry): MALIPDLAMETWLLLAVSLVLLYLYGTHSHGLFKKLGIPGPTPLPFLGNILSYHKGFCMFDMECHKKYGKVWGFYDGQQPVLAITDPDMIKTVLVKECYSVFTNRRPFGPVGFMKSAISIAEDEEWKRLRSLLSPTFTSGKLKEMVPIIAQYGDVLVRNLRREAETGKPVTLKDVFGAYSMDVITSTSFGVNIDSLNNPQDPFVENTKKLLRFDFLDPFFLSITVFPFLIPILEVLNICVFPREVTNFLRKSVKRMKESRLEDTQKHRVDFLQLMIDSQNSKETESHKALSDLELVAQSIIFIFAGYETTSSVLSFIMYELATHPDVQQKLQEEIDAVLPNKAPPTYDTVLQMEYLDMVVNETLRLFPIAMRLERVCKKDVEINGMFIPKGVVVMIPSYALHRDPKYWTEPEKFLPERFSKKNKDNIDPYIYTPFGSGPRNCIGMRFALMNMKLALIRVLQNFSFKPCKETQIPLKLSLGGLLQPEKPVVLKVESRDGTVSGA
Sequence of C-X-C chemokine receptor type 3 (Homo sapiens) (P49682 whole entry): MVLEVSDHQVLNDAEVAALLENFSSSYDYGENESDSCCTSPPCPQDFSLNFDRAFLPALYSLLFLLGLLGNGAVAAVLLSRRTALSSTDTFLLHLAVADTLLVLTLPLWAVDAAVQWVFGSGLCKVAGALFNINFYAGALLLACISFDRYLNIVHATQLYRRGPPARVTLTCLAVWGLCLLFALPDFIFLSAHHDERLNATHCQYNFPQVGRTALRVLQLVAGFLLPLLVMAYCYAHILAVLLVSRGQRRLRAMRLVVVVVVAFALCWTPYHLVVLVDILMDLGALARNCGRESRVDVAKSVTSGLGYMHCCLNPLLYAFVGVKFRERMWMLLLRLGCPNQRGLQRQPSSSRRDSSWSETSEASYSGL
Sequence of Mu-type opioid receptor (P35372 whole entry): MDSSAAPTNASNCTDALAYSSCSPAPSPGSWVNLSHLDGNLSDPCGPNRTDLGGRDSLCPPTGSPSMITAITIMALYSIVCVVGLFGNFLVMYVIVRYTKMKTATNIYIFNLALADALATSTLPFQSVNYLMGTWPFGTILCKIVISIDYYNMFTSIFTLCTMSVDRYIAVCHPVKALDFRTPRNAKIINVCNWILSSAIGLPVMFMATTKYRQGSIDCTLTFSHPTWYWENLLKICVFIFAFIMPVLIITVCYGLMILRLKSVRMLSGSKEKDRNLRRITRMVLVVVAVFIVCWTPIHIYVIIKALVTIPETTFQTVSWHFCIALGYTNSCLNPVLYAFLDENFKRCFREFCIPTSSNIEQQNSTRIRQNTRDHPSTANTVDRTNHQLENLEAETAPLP
Sequence of C-X-C chemokine receptor type 1 (Homo sapiens) (P25024 whole entry): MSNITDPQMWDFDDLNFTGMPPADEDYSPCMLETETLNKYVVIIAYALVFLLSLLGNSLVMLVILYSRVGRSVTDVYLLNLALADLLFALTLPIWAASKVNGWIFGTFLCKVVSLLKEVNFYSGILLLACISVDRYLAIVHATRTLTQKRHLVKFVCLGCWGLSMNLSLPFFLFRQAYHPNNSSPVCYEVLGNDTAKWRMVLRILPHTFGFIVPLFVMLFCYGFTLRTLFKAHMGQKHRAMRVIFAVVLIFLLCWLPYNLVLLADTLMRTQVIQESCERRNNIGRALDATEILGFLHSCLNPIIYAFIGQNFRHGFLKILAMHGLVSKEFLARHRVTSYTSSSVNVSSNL

CN(CCCCN(C[C@H]1Cc2ncccc2CN1)[C@H]1CCCc2cccnc21)C1CCC(F)(F)CC1
Selectivity Index (Homo sapiens [1]): > 710
AUC [2]: 265 h/ng/mL
Selectivity Index (Homo sapiens [3]): > 710
Cmax [4]: 12.8 ng/mL
Selectivity Index (Homo sapiens [5]): > 1000
concentration at 12 h [6]: 34.8 ng/mL
Cmax [7]: 116 ng/mL
remaining at 10 min [8]: 35%
IC50 [9]: > 10 µM
Selectivity Index (Homo sapiens [10]): > 710
IC50 (Cytochrome P450 2C8): > 20 µM
Selectivity Index (Homo sapiens [11]): > 1000
IC50 (Mu-type opioid receptor): > 30 µM
IC50 [12]: > 17 µM
inhibition [13]: < 5%
bioavailability [14]: 27.1%
selectivity ratio [15]: > 1000
concentration at 12 h [16]: 14.3 ng/mL
clearance [17]: 188 mL/min/kg
IC50 (Cytochrome P450 2C9): > 20 µM
Cmax [18]: 169 ng/mL
IC50 [19]: > 30 µM
IC50 [20]: > 30 µM
Selectivity Index (Homo sapiens [21]): > 710
Selectivity Index (Homo sapiens [22]): 710
Selectivity Index (Homo sapiens [23]): > 1000
IC50 (D(2) dopamine receptor): > 30 µM
Selectivity Index (Homo sapiens [24]): > 1000
Selectivity Index (Homo sapiens [25]): 540
inhibition [26]: < 5%
AUC [27]: 717 h/ng/mL
Selectivity Index (Homo sapiens [28]): > 1000
Selectivity Index (Homo sapiens [29]): > 1000
IC50 (Cytochrome P450 3A4): > 20 µM
Papp at 4 h [30]: 1.5 ×10⁻⁶ cm/s
